From US12152038B2, “Vasopressin receptor antagonists and products and methods related thereto” (Neumora Therapeutics, Inc., priority 2017, dated 2024)

Legend:
[1] = molecular target: T1, human Arginine Vasopressin Receptor V2 (AVPR2) (Homo sapiens, UniProt P30518); assay: Vasopressin V2 receptor antagonist assay (TR-FRET cAMP, 1321N1 cells); type: cell-based
T1 construct: host or cells: 1321N1 (cAMPZen V2 assay ready frozen cells)

[2] = molecular target: T2, human Oxytocin Receptor (hOTR) (Homo sapiens, UniProt P30559); assay: Oxytocin receptor (OTR) antagonist assay (FLIPR calcium, CHEM-1-hOTR cells); type: cell-based
T2 construct: host or cells: CHEM-1 (ready-to-assay frozen cells)
T2 sequence (P30559 1-389): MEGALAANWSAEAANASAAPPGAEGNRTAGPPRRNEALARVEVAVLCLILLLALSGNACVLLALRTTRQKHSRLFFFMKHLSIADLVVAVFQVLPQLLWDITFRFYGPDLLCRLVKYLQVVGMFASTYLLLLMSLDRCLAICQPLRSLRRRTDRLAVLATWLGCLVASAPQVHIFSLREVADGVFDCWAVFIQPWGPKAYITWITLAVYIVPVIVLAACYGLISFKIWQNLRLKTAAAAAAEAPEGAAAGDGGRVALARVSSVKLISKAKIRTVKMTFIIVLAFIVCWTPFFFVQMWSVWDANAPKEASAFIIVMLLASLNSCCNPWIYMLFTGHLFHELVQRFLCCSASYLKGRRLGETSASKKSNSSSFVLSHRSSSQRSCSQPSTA
In short: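 CHEM-1 cells expressing human OTR were loaded with Calcium-6 dye in HBSS/20 mM HEPES and preincubated with compound (10-point, 1:3 series) for 15 min at 37° C. Cells were then challenged with oxytocin at its daily-determined EC80. Calcium fluorescence was read on FLIPR for 3 min after each addition.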

T1 sequence (P30518 whole entry): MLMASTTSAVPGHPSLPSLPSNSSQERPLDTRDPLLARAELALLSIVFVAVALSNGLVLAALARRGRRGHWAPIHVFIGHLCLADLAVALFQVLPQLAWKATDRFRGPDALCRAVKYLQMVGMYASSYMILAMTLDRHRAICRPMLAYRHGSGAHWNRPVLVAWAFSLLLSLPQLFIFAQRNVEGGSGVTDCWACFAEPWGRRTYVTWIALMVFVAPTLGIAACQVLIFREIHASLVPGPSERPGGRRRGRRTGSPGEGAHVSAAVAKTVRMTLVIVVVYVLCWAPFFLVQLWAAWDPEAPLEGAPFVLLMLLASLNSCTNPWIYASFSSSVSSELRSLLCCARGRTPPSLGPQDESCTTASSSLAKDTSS

SMILES: CC1COc2cc(Cl)ccc2N1C(=O)N1CC2(C1)CN(c1cc(=O)n(C)cn1)C2 (single isomer, unassigned) [20-14-B]
- IC50 [1]: 500 to 1000 nM

SMILES: CC1COc2cc(Cl)ccc2N1C(=O)N1CC2(C1)CN(c1noc3ccccc13)C2 (stereo not drawn) [21-1, (6-(benzo[d]isoxazol-3-yl)-2,6-diazaspiro[3.3]heptan-2-yl)(7-chloro-3-methyl-2,3-dihydro-4H-benzo[b][1,4]oxazin-4-yl)methanone]
- IC50 [1]: ≥ 1000 nM
- IC50 [2]: 500 to 1000 nM

SMILES: CC1COc2cc(Cl)ccc2N1C(=O)N1CC2(C1)CN(c1ccccn1)C2 (single isomer, unassigned) [1-60-B]
- IC50 [1]: < 100 nM
- IC50 [2]: < 100 nM

SMILES: CC1COc2cc(F)ccc2N1C(=O)N1CC2(C1)CN(c1cnccn1)C2 (single isomer, unassigned) [1-65-B]
- IC50 [1]: ≥ 1000 nM
- IC50 [2]: 100 to 500 nM

SMILES: O=C(N1CC2(C1)CN(c1cc(F)ccn1)C2)N1CCOc2cc(Cl)ccc21 [1-70]
- IC50 [1]: ≥ 1000 nM
- IC50 [2]: ≥ 1000 nM

SMILES: CC1COc2cc(F)ccc2N1C(=O)N1CC2(C1)CN(c1ccccn1)C2 (single isomer, unassigned) [1-66-B]
- IC50 [1]: 500 to 1000 nM
- IC50 [2]: 100 to 500 nM

SMILES: N#Cc1cccc(N2CC3(CN(C(=O)N4CCOc5cc(Cl)ccc54)C3)C2)n1 [1-39]
- IC50 [1]: ≥ 1000 nM
- IC50 [2]: 100 to 500 nM

SMILES: Cc1nccc(N2CC3(CN(C(=O)N4c5ccc(Cl)cc5OCC4C)C3)C2)n1 (stereo not drawn) [21-8]
- IC50 [1]: 100 to 500 nM
- IC50 [2]: 100 to 500 nM

SMILES: CC1COc2cc(Cl)ccc2N1C(=O)N1CC2(C1)CN(c1ccncn1)C2 (stereo not drawn) [21-6]
- IC50 [1]: ≥ 1000 nM
- IC50 [2]: 100 to 500 nM

SMILES: O=C(N1CC2(C1)CN(c1cnc(F)cn1)C2)N1CCOc2cc(Cl)ccc21 [1-18]
- IC50 [1]: ≥ 1000 nM

SMILES: O=C(N1CC2(C1)CN(c1ccc(F)cn1)C2)N1CCC(O)c2cc(Cl)ccc21 (single isomer, unassigned) [13-1-B]
- IC50 [1]: ≥ 1000 nM
- IC50 [2]: ≥ 1000 nM

SMILES: CC1COc2cc(Cl)ccc2N1C(=O)N1CC2(C1)CN(c1ncncc1F)C2 (stereo not drawn) [21-5]
- IC50 [1]: 100 to 500 nM
- IC50 [2]: 100 to 500 nM

SMILES: Cc1nc(N2CC3(CN(C(=O)N4CCOc5cc(Cl)ccc54)C3)C2)ccc1F [1-30]
- IC50 [1]: 500 to 1000 nM
- IC50 [2]: 500 to 1000 nM

SMILES: Cc1cnc(N2CC3(CN(C(=O)N4c5ccc(Cl)cc5OCC4C)C3)C2)nc1 (single isomer, unassigned) [20-13-B]
- IC50 [1]: < 100 nM

SMILES: Cc1cnc(N2CC3(CN(C(=O)N4CCOc5cc(Cl)ccc54)C3)C2)cn1 [1-20]
- IC50 [1]: ≥ 1000 nM

SMILES: CC1COc2cc(Cl)ccc2N1C(=O)N1CC2(C1)CN(c1ccccn1)C2 (stereo not drawn) [1-60]
- IC50 [1]: 100 to 500 nM
- IC50 [2]: < 100 nM

SMILES: O=C(N1CC2(C1)CN(c1cc(F)cc(F)n1)C2)N1CCOc2cc(Cl)ccc21 [1-51]
- IC50 [1]: ≥ 1000 nM
- IC50 [2]: ≥ 1000 nM

SMILES: CCc1cnc(N2CC3(CN(C(=O)N4c5ccc(Cl)cc5OCC4C)C3)C2)nc1 (stereo not drawn) [21-9]
- IC50 [1]: 100 to 500 nM
- IC50 [2]: ≥ 1000 nM

SMILES: CC1COc2cc(F)ccc2N1C(=O)N1CC2(C1)CN(c1ncccc1F)C2 (stereo not drawn) [1-67]
- IC50 [1]: ≥ 1000 nM
- IC50 [2]: 100 to 500 nM

SMILES: O=C(N1CC2(C1)CN(c1cccnn1)C2)N1CCOc2cc(Cl)ccc21 [1-71]
- IC50 [1]: ≥ 1000 nM

SMILES: CC1COc2cc(F)ccc2N1C(=O)N1CC2(C1)CN(c1ncccc1F)C2 (single isomer, unassigned) [1-67-A]
- IC50 [1]: 100 to 500 nM
- IC50 [2]: 100 to 500 nM

SMILES: CC1COc2cc(Cl)ccc2N1C(=O)N1CC2(C1)CN(c1nn(C)c3ncccc13)C2 (single isomer, unassigned) [20-15-B]
- IC50 [1]: < 100 nM
- IC50 [2]: 500 to 1000 nM

SMILES: Cc1cncc(N2CC3(CN(C(=O)N4c5ccc(Cl)cc5OCC4C)C3)C2)n1 (stereo not drawn) [21-3]
- IC50 [1]: < 100 nM
- IC50 [2]: < 100 nM

SMILES: COc1ccc2c(c1)OCC(C)N2C(=O)N1CC2(C1)CN(c1ccc(F)cn1)C2 (single isomer, unassigned) [1-59-B]
- IC50 [1]: 100 to 500 nM
- IC50 [2]: 100 to 500 nM

SMILES: CC1COc2cc(Cl)ccc2N1C(=O)N1CC2(C1)CN(c1ccc(F)cn1)C2 (single isomer, unassigned) [1-73-A]
- IC50 [1]: ≥ 1000 nM

SMILES: Cc1cncc(N2CC3(CN(C(=O)N4CCOc5cc(Cl)ccc54)C3)C2)n1 [1-22]
- IC50 [1]: ≥ 1000 nM
- IC50 [2]: ≥ 1000 nM

SMILES: CC1COc2cc(Cl)ccc2N1C(=O)N1CC2(C1)CN(c1nccc(C(F)(F)F)n1)C2 (stereo not drawn) [21-10]
- IC50 [1]: 100 to 500 nM
- IC50 [2]: 500 to 1000 nM

SMILES: Cc1cc(F)nc(N2CC3(CN(C(=O)N4CCOc5cc(Cl)ccc54)C3)C2)c1 [1-45]
- IC50 [1]: ≥ 1000 nM

SMILES: CC1COc2cc(Cl)ccc2N1C(=O)N1CC2(C1)CN(c1ncccc1F)C2 (single isomer, unassigned) [1-57-A]
- IC50 [1]: < 100 nM

SMILES: CC1COc2cc(Cl)ccc2N1C(=O)N1CC2(C1)CN(c1ncccc1C#N)C2 (stereo not drawn) [21-2]
- IC50 [1]: ≥ 1000 nM
- IC50 [2]: 100 to 500 nM

SMILES: O=C(N1CC2(C1)CN(c1ccc(F)cn1)C2)N1CCOc2cc(F)ccc21 [1-64]
- IC50 [1]: ≥ 1000 nM

SMILES: COc1nccnc1N1CC2(CN(C(=O)N3CCOc4cc(Cl)ccc43)C2)C1 [1-43]
- IC50 [1]: ≥ 1000 nM

SMILES: Cc1cccc(N2CC3(CN(C(=O)N4CCOc5cc(Cl)ccc54)C3)C2)n1 [1-3]
- IC50 [1]: 100 to 500 nM
- IC50 [2]: 500 to 1000 nM

SMILES: CC1COc2cc(Cl)ccc2N1C(=O)N1CC2(C1)CN(c1cnccn1)C2 (single isomer, unassigned) [1-58-B]
- IC50 [1]: < 100 nM
- IC50 [2]: < 100 nM

SMILES: O=C(N1CC2(C1)CN(c1cccc(F)n1)C2)N1CCOc2cc(Cl)ccc21 [1-69]
- IC50 [1]: ≥ 1000 nM
- IC50 [2]: ≥ 1000 nM

SMILES: Cc1cnnc(N2CC3(CN(C(=O)N4c5ccc(Cl)cc5OCC4C)C3)C2)c1 (stereo not drawn) [21-4]
- IC50 [1]: 100 to 500 nM
- IC50 [2]: 500 to 1000 nM

SMILES: N#Cc1ccnc(N2CC3(CN(C(=O)N4CCOc5cc(Cl)ccc54)C3)C2)c1 [1-53]
- IC50 [1]: ≥ 1000 nM

SMILES: O=C(N1CC2(C1)CN(c1ccc(F)c(F)n1)C2)N1CCOc2cc(Cl)ccc21 [1-49]
- IC50 [1]: ≥ 1000 nM

SMILES: Cc1cc(N2CC3(CN(C(=O)N4c5ccc(Cl)cc5OCC4C)C3)C2)ncn1 (stereo not drawn) [21-11]
- IC50 [1]: 500 to 1000 nM

SMILES: CC1COc2cc(Cl)ccc2N1C(=O)N1CC2(C1)CN(c1ncc(F)cn1)C2 (single isomer, unassigned) [18-2-B]
- IC50 [1]: 100 to 500 nM
- IC50 [2]: 100 to 500 nM

SMILES: CC1COc2cc(Cl)ccc2N1C(=O)N1CC2(C1)CN(c1ccc(F)cn1)C2 (single isomer, unassigned) [1-73-B]
- IC50 [1]: < 100 nM
- IC50 [2]: < 100 nM

SMILES: CCC1COc2cc(Cl)ccc2N1C(=O)N1CC2(C1)CN(c1ccc(F)cn1)C2 (single isomer, unassigned) [1-55-B]
- IC50 [1]: < 100 nM
- IC50 [2]: < 100 nM

SMILES: COc1ccc(N2CC3(CN(C(=O)N4CCOc5cc(Cl)ccc54)C3)C2)nc1 [1-68]
- IC50 [1]: ≥ 1000 nM
